Like-named read-outs stand apart in the source and are kept apart here.
Legend:
[1] = system: PSM mRNA expression in LNCaP cells; test: Steroid modulation of PSM mRNA expression, ribonuclease protection assay; assay type: cell-based, human; details: 24 hours; for effect on PSM mRNA expression (in words): physiologic doses of steroids; for downregulation of PSM mRNA expression: charcoal-extracted serum media, steroid 2 nM
From the text: A portion of the PSM cDNA was subcloned into the plasmid vector pSPORT 1 (Gibco-BRL) and the orientation of the cDNA insert relative to the flanking T7 and SP6 RNA polymerase promoters was verified by restriction analysis. Linearization of this plasmid upstream of the PSM insert followed by transcription with SP6 RNA polymerase yields a 400 nucleotide antisense RNA probe, of which 350 nucleotides should be protected from RNase digestion by PSM RNA. This probe was used in FIG. 20. Plasmid IN-20, containing a 1 kb partial PSM cDNA in the plasmid pCR II (Invitrogen) was also used for riboprobe synthesis. IN-20 linearized with Xmn I (Gibco-BRL) yields a 298 nucleotide anti-sense RNA probe when transcribed using SP6 RNA polymerase, of which 260 nucleotides should be protected from RNase digestion by PSM mRNA. This probe was used in FIGS. 21 and 22. Probes were synthesized using SP6 RNA polymerase (Gibco-BRL), rNTPs (Gibco-BRL), RNAsin (Promega), and ^32P-rCTP (NEN, Wilmington, Del.) according to published protocols (13). Probes were purified over NENSORB 20 purification columns (NEN) and approximately 1 million cpm of purified, radiolabeled PSM probe was mixed with 10μ of each RNA and hybridized overnight at 45 C using buffers and reagents from the RPA II kit (Ambion, Austin, Tex.). Samples were processed as per manufacturer's instructions and analyzed on 5% polyacrilamide/7M urea denaturing gels using Seq ACRYL reagents (ISS, Natick, Mass.). Gels were pre-heated to 55 C and run for approximately 1-2 hours at 25 watts. Gels were then fixed for 30 minutes in 10% methanol/10% acetic acid, dried onto Whatman 3MM paper at 80 C in a BioRad vacuum dryer and autoradiographed overnight with Hyperfilm MP (Amersham). Quantitation of PSM expression was determined by using a scanning laser densitometer (LKB, Piscataway, N.J.).
LNCaP cells (2 million) were plated onto T-75 flasks in RPMI 1640 media supplemented with 5% fetal calf serum and grown 24 hours until approximately 30-40% confluent. Flasks were then washed several times with phophate-buffered saline and RPMI medium supplemented with 5% charcoal-extracted serum was added. Cells were then grown for another 24 hours, at which time dihydrotesterone, testosterone, estradiol, progesterone, and dexamethasone (Steraloids Inc., Wilton, N.H.) were added at a final concentration of 2 nM. Cells were grown for another 24 hours and RNA was then harvested as previously described and PSM expression analyzed by ribonuclease protection analysis.

[2] = biological target: T1, PSM enzyme (folate hydrolase) (Homo sapiens, UniProt Q04609); assay type: biochemical; details: for hydrolysis as substrate by the PSM enzyme (in words): LNCaP membrane preparations
T1 construct: membrane preparations from androgen-sensitive human prostatic carcinoma cells (LNCaP); endogenous in cells; host or cells: LNCaP cell membranes
From the text: Using capillary electrophoresisis pteroyl poly-gamma-glutamate carboxypeptidase (hydrolase) activity was investigated in membrane preparations from androgen-sensitive human prostatic carcinoma cells (LNCaP).

[3] = biological target: T2, Prostate specific membrane antigen (Homo sapiens, UniProt Q04609); test: Inhibition of neuropeptidase activity (NAAG as substrate) of immunoprecipitated PSM; assay type: biochemical
T2 construct: Prostate specific membrane antigen was immuno precipitated from the prostate cancer cell line LNCaP; endogenous in cells; host or cells: LNCaP (immunoprecipitate)
From the text: PSM may have activities both as a folate hydrolase and a carboxyneuropeptidase. For the cytotoxic drug methotrexate to be a tumor toxin it has to get into the cell and be polygammaglutamated which to be active, because polyglutamated forms serve as the enzyme substrates and because polyglutamated forms or toxins are also retained by the cell. Folate hydrolase is a competing reaction and deglutamates methotrexate which then can diffuse back out of the cell. Cells that overexpose folate hydrolase activity are resistant to methotrexate. Prostate cancer has always been absolutely refractory to methotrexate therapy and this may explain why, since the prostate and prostate cancer has a lot of folate hydolase activity. However, based on this activity, prodrugs may be generated which would be activate at the site of the tumor such as N-phosphonoacetyl-1-aspartate-glutamate.
Folate is necessary for the support of cell function and growth and thus this enzyme may serve to modulate folate access to the prostate and prostate tumor. The other area where PSM is expressed is in the small intestine. It turns out that a key enzyme of the small intestine that is involved in folate uptake acts as a gamma-carboxypeptidase in sequentially proteolytically removing the terminal gammaglutaminyl group from folate. […]

[4] = system: PSM mRNA expression in LNCaP cells; test: Modulation of PSM mRNA expression by cytokines and growth factors, Northern blot and laser densitometry; assay type: cell-based, human; details: 24 to 72 hours, 0.1 ng/ml to 100 ng/ml; for downregulation of PSM expression: androgen depleted LNCaP cells; for upregulation of PSM expression compared to untreated LNCaP: androgen-depleted media
From the text: Total RNA was extracted from the cells and PSM mRNA expression was quantitated by Northern blot analysis and laser densitometry.

[5] = system: PC-3 cells; test: Mitogenic response to transferrin, cell count; assay type: cell-based, human; details: 1 μg per ml holotransferrin, counted at 5 days
Protocol: 2×10^4 PC-3 or PSM-transfected PC-3 cells per well ere plated in RPMI medium supplemented with 10% fetal bovine serum and at 24 hrs. added 1 μg per ml. of holotransferrin to the cells. […] Cells were counted at 1 day to determine plating efficiency and at 5 days to determine the effect of the transferrin. Experiments were repeated to verify the results.

[6] = system: LNCaP cells; test: Mitogenic response to transferrin, cell count; assay type: cell-based, human
[7] = 0.05-0.5 mM, semi-purified membrane-bound enzyme

T1 sequence (Q04609 whole entry): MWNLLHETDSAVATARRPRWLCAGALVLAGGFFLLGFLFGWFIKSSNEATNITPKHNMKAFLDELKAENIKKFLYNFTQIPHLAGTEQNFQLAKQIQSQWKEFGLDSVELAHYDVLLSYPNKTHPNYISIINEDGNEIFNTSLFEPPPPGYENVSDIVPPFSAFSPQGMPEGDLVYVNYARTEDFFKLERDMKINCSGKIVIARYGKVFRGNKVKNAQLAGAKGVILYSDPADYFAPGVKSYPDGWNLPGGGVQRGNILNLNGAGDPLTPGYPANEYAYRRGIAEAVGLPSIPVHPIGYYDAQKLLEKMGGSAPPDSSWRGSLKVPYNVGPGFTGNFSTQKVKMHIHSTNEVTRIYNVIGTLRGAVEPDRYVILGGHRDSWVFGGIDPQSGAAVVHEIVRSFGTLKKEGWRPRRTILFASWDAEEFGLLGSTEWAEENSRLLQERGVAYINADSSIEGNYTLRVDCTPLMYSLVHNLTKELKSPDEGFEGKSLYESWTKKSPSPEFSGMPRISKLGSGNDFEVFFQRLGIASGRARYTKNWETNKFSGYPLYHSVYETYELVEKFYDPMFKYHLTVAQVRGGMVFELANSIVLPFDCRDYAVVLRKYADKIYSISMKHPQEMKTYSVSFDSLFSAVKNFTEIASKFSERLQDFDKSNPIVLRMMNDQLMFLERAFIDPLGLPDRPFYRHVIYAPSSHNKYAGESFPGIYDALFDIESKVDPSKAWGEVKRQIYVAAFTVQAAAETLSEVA
T2 sequence (Q04609 whole entry): as above

CC(=O)[C@H]1CC[C@H]2[C@@H]3CCC4=CC(=O)CC[C@]4(C)[C@H]3CC[C@]12C [progesterone]
effect on PSM mRNA expression (in words) [1]: downregulated PSM expression | effect on PSM mRNA expression (in words) ([1]; listed as Progesterone): significantly diminished PSM expression

O[C@@H](CS)[C@@H](O)CS [dithfothreitol]
inhibition of enzymatic activity (in words) ([2]; ≧0.2 mM, semi-purified membrane-bound enzyme): weakly inhibited

N[C@@H](CCS)C(=O)O [homocysteine]
inhibition of enzymatic activity (in words) [2, 7]: not

Penta-gammaglutamyl-folate
Ki ([3]; read-out: Ki, inhibition of the activity of the enzyme): 500 nM | hydrolysis as substrate by the PSM enzyme (in words) [2]: liberates progressively glutamates

C[C@]12CCC(=O)C[C@@H]1CC[C@@H]1[C@@H]2CC[C@]2(C)[C@@H](O)CC[C@@H]12 [DHT, dihydrotesterone]
doses at which maximal downregulation of PSM mRNA was seen [1]: 2 to 20 nM | downregulation of PSM mRNA expression [1]: 8-10 fold | effect on PSM mRNA expression (in words) [1]: significantly diminished PSM expression

TNFα
downregulation of PSM expression [4]: 8 fold

transferrin: holotransferrin added at 1 μg per ml to the cells
average increase in cell growth over controls [5]: 275% | stimulation of cell growth [6]: 43%

O=C(O)c1cc[c]([Hg+])cc1.[OH-] [p-hydroxymercuribenzoate]
inhibition of enzymatic activity (in words) [2, 7]: not

O=C(O)CC[C@H](NC(=O)[C@H](CC(=O)O)NC(=O)CP(=O)(O)O)C(=O)O [PALglu, N-phosphonoacetyl-1-aspartate-glutamate]
inhibition of neuropeptidase activity (in words) ([3]; NAAG as a substrate): is an inhibitor of the enzyme activity

b-FGF: growth factor
upregulation of PSM expression compared to untreated LNCaP [4]: 10 fold

TGFα: growth factor, mitogenic for aggressive prostate cancer cells
upregulation of PSM expression compared to untreated LNCaP [4]: 10 fold

N[C@@H](CCC(=O)N[C@@H](CS)C(=O)NCC(=O)O)C(=O)O [reduced glutathione]
inhibition of enzymatic activity (in words) [2]: not

C[C@]12CC[C@H]3[C@@H](CCC4=CC(=O)CC[C@@]43C)[C@@H]1CC[C@@H]2O [testosterone]
downregulation of PSM mRNA expression [1]: 3-4 fold | effect on PSM mRNA expression (in words) [1]: significantly diminished PSM expression

CN(Cc1cnc2nc(N)nc(N)c2n1)c1ccc(C(=O)N[C@@H](CCC(=O)N[C@@H](CCC(=O)N[C@@H](CCC(=O)O)C(=O)O)C(=O)O)C(=O)O)cc1 [MTXGlu3, methotrexate triuglutamate]
hydrolysis as substrate by the PSM enzyme (in words) [2]: liberates progressively glutamates

B1: TNFβ: cytokine (protein, UniProt P01374 35-205, looked up)
Lymphotoxin-alpha: LPGVGLTPSAAQTARQHPKMHLAHSTLKPAAHLIGDPSKQNSLLWRANTDRAFLQDGFSLSNNSLLVPTSGIYFVYSQVVFSGKAYSPKATSSPLYLAHEVQLFSSQYPFHVPLLSSQKMVYPGLQEPWLHSMYHGAAFQLTQGDQLSTHTDGIPHLVLSPSTVFFGAFAL
downregulation of PSM expression [4]: 8 fold
